Measurements published in patent US10793514B2, “Glutamine transport inhibitors and methods for treating cancer” (Vanderbilt University, priority 2016, dated 2020).
Entries after “also recorded” stand apart in the source; their conditions may differ. Where two headings read alike, the source gives them in different places.

What was measured:
[1] = system: pERK in HCC1806 and HT29 cells; experiment: AlphaScreen SureFire pERK assay; format: cell-based, human; details: 48 h
Protocol: Detection of activated ERK in cell lysates was enabled by the AlphaScreen SureFire ERK assay (Perkin Elmer) according to the manufacturers protocol. Cells were plated in 96-well plates for 24 hours prior to the assay.

HT29 cells = experiment: Glutathione and reactive oxygen species in HT29 cells; format: cell-based, human; details: 48 h
Protocol: Glutathione levels were measured using a commercially available kit (Cayman Chemical 703002) according to the manufacturers protocol. Concurrently ROS was measured in cells using CM-H2DCFDA (Life Technologies C6827) coupled with flow cytometry in accordance with the manufacturers protocol. The assay was replicated replicated at least three times, technically and biologically. Significance was calculated using a t-test in Graphpad Prism. Error is reported as standard deviation (SD).

HCC1806 and HT29 cells = experiment: Autophagic flux (CYTO-ID); format: cell-based, human; details: single agent
Protocol: Autophagic flux was measure using the CYTO-ID autophagy detection kit (Enzo Life Sciences ENZ-51031). HCC1806 and HT29 cells were seeded in 96 well plates the day before the experiment. […] Following treatment, cells were gently washed with assay buffer followed by addition of the dual color detection solution and incubation at 37° C. for 30 min. The plate was analyzed on a fluorescence microplane reader (BioTek Synergy 4).

[2] = system: human CRC organoids A-007 and A-008; experiment: Human CRC organoid viability assay; format: cell-based; details: V-9302 25 μM or CB-839 35 μM, 96 h
Protocol: Human CRC-derived organoids were prepared as reported method with modification^41. Briefly, specimens from freshly resected tumors were minced and digested with 2 mg/ml type 2 collagenase (Worthington, N.J., USA). Samples were passed through 40 µm filters (Greiner Bio One, NC, USA) and epithelial cells trapped on the filters were embed in Matrigel (Corning, MA, USA) and cultured with advanced DMEM/F12 supplemented with N2 and B27 supplements (Thermo Fischer, MA, USA), 50 ng/ml rhEGF (R&D systems, MN, USA) and 1% antibiotic-antimycotic (Corning). For viability assay, organoids were dissociated by TrypLE express (Thermo Fischer) and suspended in Matrigel. […] After 4 days of culture, images of the organoids in Matrigel were captured and the number of viable cells were quantified with CellTiter Aqueous One Cell Proliferation Assay kit (Promega, WI, USA) and a Synergy 4 plate reader (BioTek, VT, USA). The assay was replicated at least three times, technically and biologically. Significance was calculated using a t-test in Graphpad Prism. Error is reported as standard deviation (SD).

HT29 and HCT-116 cells = experiment: Cell viability with or without chloroquine; format: cell-based, human; details: 48 h
Protocol: (§1) Viability was evaluated using a commercially available chemiluminescent reagents (CellTiter-Glo, Promega Corp. G7572; MultiTox Glo, Promega Corp. G9270) in 96-well plate format according to the manufacturers protocol. […] Subsequently, CellTiter-Glo reagent was added and the plates were read using a plate reader (BioTek Synergy 4) with standard settings. Each set of conditions was replicated at least three times, technically and biologically. Error is reported as standard deviation (SD). The sulforhodamine B assay was run analogously to the above assays as previously described^19.

human CRC cell lines = experiment: Follow-up viability screening (MultiTox Glo, sulforhodamine B); format: cell-based; details: four human CRC cell lines; 48 hrs; MultiTox Glo
Protocol: as §1

ASCT2 [3] = molecular target: ASCT2 (Homo sapiens (Human), UniProt Q15758); experiment: Inhibition of ASCT2-mediated 3H-glutamine uptake in live HEK293 (human) cells; format: cell-based
ASCT2 [4] = molecular target: ASCT2 (Rattus norvegicus (Rat), UniProt D3ZJ25); experiment: Inhibition of ASCT2-mediated glutamine uptake in C6 (rat) cells; format: cell-based; details: for IC50: C6 (rat) cells, glutamine uptake, mean of at least 3 biological replicates; for preference for blocking glutamine transport in rat vs human cell line: C6 (rat) vs HEK293 (human)
ASCT2 [5] = details: cited from earlier work
HCC1806 cells = experiment: Cell viability in HCC1806 cells; format: cell-based; details: Homo sapiens, exposure 48 hrs
[6] = HEK293 (human) cells, glutamine uptake, mean of at least 3 biological replicates, read-out: IC50 (human)

ASCT2 (Homo sapiens (Human), UniProt Q15758), sequence (Q15758 whole entry): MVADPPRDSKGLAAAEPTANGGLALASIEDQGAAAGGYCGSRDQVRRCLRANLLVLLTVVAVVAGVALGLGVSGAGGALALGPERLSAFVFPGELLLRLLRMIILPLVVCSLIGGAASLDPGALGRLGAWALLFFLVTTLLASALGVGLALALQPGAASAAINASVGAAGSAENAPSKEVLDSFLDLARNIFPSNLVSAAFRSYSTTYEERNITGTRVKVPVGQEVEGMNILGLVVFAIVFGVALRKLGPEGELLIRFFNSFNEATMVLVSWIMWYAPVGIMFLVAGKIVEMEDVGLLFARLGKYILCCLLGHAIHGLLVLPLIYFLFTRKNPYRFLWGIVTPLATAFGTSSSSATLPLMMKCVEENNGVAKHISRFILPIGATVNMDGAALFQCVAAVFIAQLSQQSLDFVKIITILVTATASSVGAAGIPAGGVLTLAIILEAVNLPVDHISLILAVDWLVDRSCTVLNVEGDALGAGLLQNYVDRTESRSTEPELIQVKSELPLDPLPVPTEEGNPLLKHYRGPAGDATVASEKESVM
ASCT2 (Rattus norvegicus (Rat), UniProt D3ZJ25), sequence (D3ZJ25 whole entry): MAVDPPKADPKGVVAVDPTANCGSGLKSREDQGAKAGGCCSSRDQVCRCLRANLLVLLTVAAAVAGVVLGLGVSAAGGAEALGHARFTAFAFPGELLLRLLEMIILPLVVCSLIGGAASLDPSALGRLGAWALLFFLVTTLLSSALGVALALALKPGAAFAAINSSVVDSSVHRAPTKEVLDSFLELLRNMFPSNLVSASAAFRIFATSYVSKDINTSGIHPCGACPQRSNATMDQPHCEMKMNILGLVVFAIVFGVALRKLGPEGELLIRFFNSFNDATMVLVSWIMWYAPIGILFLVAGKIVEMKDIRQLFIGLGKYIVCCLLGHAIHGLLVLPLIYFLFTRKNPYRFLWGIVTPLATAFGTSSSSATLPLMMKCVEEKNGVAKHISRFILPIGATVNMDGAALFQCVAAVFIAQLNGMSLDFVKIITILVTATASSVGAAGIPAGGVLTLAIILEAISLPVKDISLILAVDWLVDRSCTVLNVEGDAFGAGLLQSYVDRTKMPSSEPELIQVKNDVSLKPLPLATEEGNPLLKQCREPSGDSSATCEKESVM

Row | IC50 (ASCT2 [3]; [6]) [µM] | IC50 (ASCT2 [4]) [µM] | Structure (SMILES) | other results
1 |  |  | O=C(Cc1cccc(OC(F)(F)F)c1)Nc1ccc(CCCCc2nnc(NC(=O)Cc3ccccn3)s2)nn1 [CB-839, reference compound] | pERK (independent biochemical assay) [1]: not observed; GSSG levels and ROS (HT29 cells): not observed; autophagic flux (HCC1806 and HT29 cells): did not lead to elevated autophagic flux; organoid viability [2]: not significantly affected; cell viability, single agent (HT29 and HCT-116 cells): did not decrease cell viability; EC50, cellular viability (human CRC cell lines): did not exhibit appreciable activity
2 | 57.2 | 1.3 | COc1cccc(Oc2ccccc2CN(CC[C@@H](N)C(=O)O)Cc2ccccc2Oc2ccccc2OC)c1 [Compound 5] | preference for blocking glutamine transport in rat vs human cell line (ASCT2 [4]): exhibited this preference
3 | 11.9 | 8.7 | COc1ccc(Oc2ccccc2CN(CC[C@@H](N)C(=O)O)Cc2ccccc2Oc2ccc(OC)cc2)cc1 [Compound 6] | preference for blocking glutamine transport in rat vs human cell line (ASCT2 [4]): roughly equal potencies in both cells lines
4 | 33.8 | 1.8 | N[C@H](CCN(Cc1ccccc1Oc1ccccc1F)Cc1ccccc1Oc1ccccc1F)C(=O)O [Compound 8] | preference for blocking glutamine transport in rat vs human cell line (ASCT2 [4]): some preference for blocking glutamine transport in the rat cell line
5 |  | 36.3 | N[C@H](CCN(Cc1ccccc1Oc1cccc(F)c1)Cc1ccccc1Oc1cccc(F)c1)C(=O)O [Compound 9] | 
6 | 59.6 | 68.2 | N[C@H](CCN(Cc1ccccc1Oc1ccccn1)Cc1ccccc1Oc1ccccn1)C(=O)O [Compound 11] | preference for blocking glutamine transport in rat vs human cell line (ASCT2 [4]): roughly equal potencies in both cells lines
7 | 40.1 | 18.4 | N[C@H](CCN(Cc1ccccc1OCc1ccccc1Cl)Cc1ccccc1OCc1ccccc1Cl)C(=O)O [Compound 13] | 
8 | 50.8 | 12.7 | N[C@H](CCN(Cc1ccccc1OCc1cccc(O)c1)Cc1ccccc1OCc1cccc(Cl)c1)C(=O)O [Compound 14] | 
9 | 33.7 | 20.1 | N[C@H](CCN(Cc1ccccc1OCc1ccc(Cl)cc1)Cc1ccccc1OCc1ccc(Cl)cc1)C(=O)O [Compound 15] | 
10 |  | 9 | Cc1cccc(COc2ccccc2CN(CC[C@@H](N)C(=O)O)Cc2ccccc2OCc2cccc(C)c2)c1 [Compound 17] | 
11 | 17.5 | 86.4 | Cc1ccc(COc2ccccc2CN(CC[C@@H](N)C(=O)O)Cc2ccccc2OCc2ccc(C)cc2)cc1 [Compound 18] | preference for blocking glutamine transport in rat vs human cell line (ASCT2 [4]): significant preference for inhibiting glutamine uptake in the human form of ASCT2
12 |  | 3.3 | N[C@H](CCN(Cc1ccccc1OCc1ccccc1F)Cc1ccccc1OCc1ccccc1F)C(=O)O [Compound 19] | 
13 | 48.3 | 8.4 | N[C@H](CCN(Cc1ccccc1OCc1ccccn1)Cc1ccccc1OCc1ccccn1)C(=O)O [Compound 21] | 
14 | 89.1 | 17.3 | N[C@H](CCN(Cc1ccccc1OCc1cccnc1)Cc1ccccc1OCc1cccnc1)C(=O)O [Compound 22] | 
15 |  |  | N[C@@H](CCC(=O)Nc1ccc([N+](=O)[O-])cc1)C(=O)O [GPNA, L-γ-glutamyl-p-nitroanilide] | potency as ASCT2 inhibitor (previously reported) (ASCT2 [5]): poor potency and selectivity in human cells; also recorded: modest potency in the low millimolar range; IC50 (ASCT2 [3]; live HEK-293 cells, read-out: IC50, inhibition of ASCT2-mediated glutamine uptake in human cells): 1000 µM
16 |  |  | NC(=O)CC[C@H](Nc1ccccc1CN1CCOCC1)C(=O)O [N-(2-(morpholinomethyl)phenyl)-L-glutamine] | activity against ASCT2 compared to GPNA (previously described) (ASCT2 [5]): three-fold improved activity
17 |  |  | N[C@@H](COC(=O)c1ccc(-c2ccccc2)cc1)C(=O)O [O-(4-phenylbenzoyl)-L-serine] | Ki (ASCT2 [5]; Albers et al., read-out: apparent affinity): 30 µM
18 |  |  | Cc1cccc(COc2ccccc2CN(Cc2ccccc2OCc2cccc(C)c2)C2CCN[C@H](C(=O)O)C2)c1 (stereo partly drawn) [WJB-A-110, (2S)-4-(Bis(2-((3-methylbenzyl)oxy)benzyl)amino)piperidine-2-carboxylic Acid] | IC50 (HCC1806 cells): 32 µM
19 |  |  | Cc1cccc(COc2ccccc2CN(Cc2ccccc2OCc2cccc(C)c2)C2CN[C@H](C(=O)O)C2)c1 (stereo partly drawn) [WJB-A-119, (2S)-4-(Bis(2-((3-methylbenzyl)oxy)benzyl)amino)pyrrolidine-2-carboxylic Acid] | IC50 (HCC1806 cells): 23 µM

Row | Structure (SMILES) | IC50 (ASCT2 [3]; [6]) [µM] | IC50 (ASCT2 [4]) [µM] | other results
20 | N[C@H](CCN(Cc1ccccc1Oc1cccc(Cl)c1)Cc1ccccc1Oc1cccc(Cl)c1)C(=O)O [Compound 7] | 26 |  | 
21 | Cc1ccc(Oc2ccccc2CN(CC[C@@H](N)C(=O)O)Cc2ccccc2Oc2ccc(F)cc2)cc1 [Compound 10] | 142 | 10.5 | preference for blocking glutamine transport in rat vs human cell line (ASCT2 [4]): some preference for blocking glutamine transport in the rat cell line
22 | COc1cccc(COc2ccccc2CN(CC[C@@H](N)C(=O)O)Cc2ccccc2OCc2cccc(OC)c2)c1 [Compound 12] | 7.2 | 5.1 | 
23 | Cc1ccccc1COc1ccccc1CN(CC[C@@H](N)C(=O)O)Cc1ccccc1OCc1ccccc1C [Compound 16] | 25.6 | 41.7 | 
24 | N[C@H](CCN(Cc1ccccc1OCc1ccc(F)cc1)Cc1ccccc1OCc1ccc(F)cc1)C(=O)O [Compound 20] |  | 11.2 | 
